Test results as given in US20050090551A1, “Therapeutic use of methionine for the treatment or prevention of mucositis” (Board of Trustees of Southern Illinois University, priority 2003, published 2005).
Where a name gives a salt, the structure may show the parent alone.

How the values were obtained:
[1] = tested on: NHIK 3025 in vitro human uterine cervix carcinoma in situ cancer cells; settings: preadministration of methionine, presumably a racemic mixture; cited from earlier work
[2] = tested on: CDDP nephrotoxicity; settings: literature reports; cited from earlier work
[3] = tested on: CDDP anti-tumor action; settings: literature reports; cited from earlier work
[4] = tested on: CDDP-induced weight loss; settings: literature reports; cited from earlier work
[5] = tested on: male Wistar rats; assay: Auditory Brainstem Testing (ABR) thresholds in CDDP-treated rats; format: in vivo, rat
[6] = tested on: male Wistar rats
[7] = tested on: male Wistar rats; remark: listed apart in the source
[8] = tested on: male Wistar rats; settings: 75, 150 or 300 mg/kg D-methionine prior to 16 mg/kg CDDP
[9] = tested on: Human salivary gland epithelial cells; settings: various concentrations of D-methionine (1.0-0.1 mg/ml) six hours prior to 10 Gy; after 24 Hrs
From the text: One set was untreated as a control and another was irradiated with 10 Gy the following morning.

[10] = tested on: mice; settings: 6 Gy/day for five days
Method: The experiment was conducted using a mouse model of radiation-induced lip erythema. Four groups of mice (n=5) were used. The first group (Group A) was an untreated, control group. The second group (Group B) was irradiated with ionizing radiation (6 Gy/day) for 5 days.

[11] = tested on: tumor bearing animals; settings: pre or post treatment, 150 mg/Kg x5, i.p.
[12] = tested on: Walker 256 carcinosarcoma in the rat; settings: Jones and Basinger; cited from earlier work
[13] = tested on: CDDP ototoxicity; settings: animals; literature reports; cited from earlier work
[14] = tested on: hamsters; settings: Church et al; cited from earlier work
[15] = tested on: patients; settings: cited from earlier work

## CSCC[C@H](N)C(=O)O (racemic) [methionine]
[1]
  effect on CDDP cytotoxicity: sensitized

## CSc1ncccc1C(=O)O [2-(methylthio)nicotinic acid]
[2]
  CDDP nephroprotection: does not provide nephroprotection

## O=C(O)CCCC[C@@H]1SC[C@@H]2NC(=O)N[C@@H]21 [Biotin]
[2]
  CDDP nephroprotection: good CDDP nephroprotection
[3]
  effect on CDDP anti-tumor action: inhibits anti-tumor activity

## C[C@H](CS)C(=O)N1CCC[C@H]1C(=O)O [Captropril]
[2]
  CDDP nephroprotection: protects against CDDP nephrotoxicity

## CC1=C(C(=O)O)N2C(=O)[C@@H](NC(=O)[C@H](N)c3ccccc3)[C@H]2SC1 [Cephalexin]
[4]
  protection against CDDP-induced weight loss: protects against CDDP-induced kidney dysfunction and weight loss

## CSCC[C@@H](N)C(=O)O [D-methionine]
[2]
  CDDP nephroprotection: highly effective CDDP nephroprotection
[5]; 75 mg/kg D-methionine i.p. 30 minutes prior to 16 mg/kg CDDP, 3 days later
  animals with complete otoprotection (no significant ABR threshold shift for any stimulus): 2/5
[5]; 150 mg/kg D-methionine i.p. 30 minutes prior to 16 mg/kg CDDP, 3 days later
  animals with complete otoprotection (no significant ABR threshold shift for any stimulus): 3/5
[5]; 300 mg/kg D-methionine i.p. 30 minutes prior to 16 mg/kg CDDP, group of 5, 3 days later
  animals with complete otoprotection for all stimulus conditions: 5
[5]; any level of D-methionine (75, 150, 300 mg/kg) prior to 16 mg/kg CDDP
  post-test ABR thresholds vs treated control group, all stimuli: significantly lower ABR thresholds than the treated control group
[6]; 300 mg/kg D-methionine prior to 16 mg/kg CDDP, 3 days
  weight loss vs treated control group: significantly less than that in the treated control group
[6]; 75, 150, 300 mg/kg D-methionine prior to 16 mg/kg CDDP
  CDDP-induced weight loss, dose dependence: diminished as D-methionine dosing increased
[7]; D-methionine prior to 16 mg/kg CDDP
  alopecia: coat and hair loss vs control group animals: significantly less hair loss
[7]; any level of D-methionine prior to 16 mg/kg CDDP
  animals surviving to the end of the study period: 15/15
[7]; morning of the third day, D-methionine prior to 16 mg/kg CDDP
  neuroprotection: activity and coordination vs surviving treated controls: noticeably more lively, active, and coordinated
[8]
  outer hair cell findings, middle and basal turns: only the treated control group showed significantly different findings from the untreated control group
[9]
  apoptosis (cells having an apoptotic phenotype): about 20%
[10]; 150 mg/kg one hour after irradiation
  lip erythema, post-treatment: prevented the occurrence of lip erythema
[10]; 150 mg/kg six hours prior to irradiation
  lip erythema, pre-treatment: prevented the occurrence of lip erythema
[11]
  interference with antitumor activity of ionizing radiation: did not interfere with antitumor activity of ionizing radiation
[12]
  effect on CDDP anti-tumor action: does not inhibit CDDP anti-tumor action
[3]
  effect on CDDP anti-tumor action: without decreasing anti-tumor action

## CCOC(=O)[C@@H](N)CS [Ethyl-L-cysteinate]
[2]
  CDDP nephroprotection: exacerbate CDDP nephrotoxicity

## CSCC[C@H](N)C(N)=O [L-methioninamide]
[2]
  CDDP nephroprotection: excellent CDDP nephroprotection
[3]
  effect on CDDP anti-tumor action: impairs CDDP anti-tumor action

## CC(S)C(=O)NCC(=O)O (stereo not drawn) [N-(2-mercapto-propionyl)glycine]
[2]
  CDDP nephroprotection: exacerbate CDDP nephrotoxicity

## O=S([O-])([O-])=S.[Na+].[Na+] [STS, sodium thiosulfate]
[2]
  CDDP nephroprotection: reduces CDDP nephrotoxicity and ototoxicity
[13]
  CDDP otoprotection: good CDDP otoprotection
[3]
  effect on CDDP anti-tumor action: reduces the latter's tumoricidal action

## Nc1ccc(S(=O)(=O)Nc2nccs2)cc1 [Sulfathiazole]
[4]
  protection against CDDP-induced weight loss: not weight loss
[2]
  CDDP nephroprotection: provides protection against CDDP nephrotoxicity

## NCCCNCCSP(=O)(O)O [WR2721]
[2]
  CDDP nephroprotection: excellent CDDP nephroprotection
[14]
  protection from ototoxicity or mortality: no WR2721 protection from ototoxicity or mortality
[15]; WR2721 prior to CDDP, Glover et al.
  patients with mild to severe hearing loss: 20 of 36
[15]; patients pretreated with WR2721 prior to CDDP, Rubin et al.
  incidence of significant hearing threshold shift: 45%

## CO[C@@]1(NC(=O)Cc2cccs2)C(=O)N2C(C(=O)O)=C(COC(N)=O)CS[C@@H]21 [cefoxitin]
[4]
  protection against CDDP-induced weight loss: some protection against CDDP-induced weight loss
[2]
  CDDP nephroprotection: does not provide nephroprotection

## CC1(C)S[C@@H]2[C@H](NC(=O)Cc3ccccc3)C(=O)N2[C@H]1C(=O)[O-].[Na+] [sodium salt of penicillin G, penicillin G]
[4]
  protection against CDDP-induced weight loss: does not protect against CDDP nephrotoxicity or weight loss
[2]
  CDDP nephroprotection: does not protect against CDDP nephrotoxicity or weight loss

## Cc1ncc(C[n+]2csc(CCO)c2C)c(N)n1 [thiamine-HCl]
[4]
  protection against CDDP-induced weight loss: does not protect against cisplatin nephrotoxicity or weight loss
[2]
  CDDP nephroprotection: does not protect against cisplatin nephrotoxicity or weight loss
